Results as given in patent US20190224186A1, “TREATMENT OF MULTIPLE SCLEROSIS WITH CHS-131” (InteKrin Therapeutics, Inc., priority 2016, published 2019).
“And” between values parts separate entries of the source, which are not always exact repeats. Equal values may be shown once.

Columns and labels:
[1] = system: MS patients in the relapsing and remitting course of the disease (RRMS); test: Slope of cortical atrophy at six months as a function of CE lesion number; format: in vivo, human; details: n=70
Protocol: To evaluate the connection between the reduction in cortical volume loss and CHS-131 treatment, cortical volume was compared to observed CE lesion in the MS patients. […] The slopes of cortical atrophy at six months as a function of CE lesion number at six months was plotted for the placebo group (n=69), the CHS-131 1 mg/day group (n=70), and the CHS-131 3 mg/day group (n=70). For the placebo, 1 mg/day, and 3 mg/day groups the slopes were: −0.040391, −0.019631, and −0.001783, respectively. […] Thus, the reduction in CE lesions as a result of CHS-131 treatment is correlated with a reduction in the loss of cortical volume in MS patients.

[2] = system: MS patients in the relapsing and remitting course of the disease (RRMS); test: Trend line of change in cortical volume versus EDSS scores; format: in vivo, human; details: 6-month time point
Source text: To evaluate the connection between cortical volume loss and dysfunction, the reduction in volume loss was compared to EDSS scores of the MS patients. FIGS. 5 and 6 show the relationship between the change in cortical volume and EDSS scores at 3 months and 6 months, respectively.

[3] = system: MS patients in the relapsing and remitting course of the disease (RRMS); test: Calculated dose response curve: expected new gadolinium CE T1-weighted lesions over six months; parameters: species or system human
Protocol: To test the hypothesis that women will benefit from higher doses of CHS-131 and identify efficacious doses of CHS-131 for women, a dose response curve was calculated. The dose response curve was calculated to determine the efficacy of various daily dose of CHS-131 for males and females. The dose-response curve is assumed to have the following form: RDose=α exp β−Dose+γ Parameter β was determined from negative binomial regression using the observed total new GAD CE lesions 6 Months and numeric dosage of 0, 1, 3 mg. Parameters α and γ were determined using least-squares method on the observed mean total new GAD CE lesions 6 Months. Based on the clinical trial data, we calculated the expected number of new gadolinium CE T1-weighted lesions that would be seen over six months on doses of CHS-131 ranging from 1 to 10 mg per day. Table 7 below provides a tabular report of the percent reduction compared to the number of lesions at a 0 mg dose.

[4] = system: MS patients in the relapsing and remitting course of the disease (RRMS); test: Phase 2 trial: change in cortical (neocortical) volume by MRI, SIENAX-MTP3; format: in vivo, human; details: 3 mg
Protocol: Upon completion of the six-month trial period described in Example 1 the change in neocortical volume and whole brain volume was evaluated. Table 9 below reports the change in neocortical volumes at 3 months and at 6 months, compared to baseline, for the 3 mg and placebo groups. Baseline volume was normalized for head size. Percent change is calculated by […]-multi-time point (MTP3) algorithm. The difference in the mean change in volume calculated to determine the impact treatment with CHS-131.

[5] = system: MS patients in the relapsing and remitting course of the disease (RRMS); test: as above; format: in vivo, human; details: 1 mg

O=S(=O)(Nc1cc(Cl)c(Oc2cnc3ccccc3c2)c(Cl)c1)c1ccc(Cl)cc1Cl [CHS-131]
slope of cortical atrophy at six months as a function of CE lesion number ([1]; 1 mg/day): −0.01963 | slope of cortical atrophy at six months as a function of CE lesion number ([1]; 3 mg/day): −0.001783 | trend line slope, change in cortical volume vs EDSS score ([2]; 1 mg): −0.138 | trend line slope, change in cortical volume vs EDSS score ([2]; 3 mg): 0.080 | Expected # of Lesions ([3]; Females, 1 mg): 7.14 | Expected Percent Change from Placebo ([3]; Females, 1 mg): −25.9% | Expected Percent Reduction vs 0 mg dose ([3]; Females, 1 mg): 13.98% | Expected # of Lesions ([3]; Females, 2 mg): 6.15 | Expected Percent Change from Placebo ([3]; Females, 2 mg): −36.0% | Expected Percent Reduction vs 0 mg dose ([3]; Females, 2 mg): 25.90% | Expected # of Lesions ([3]; Females, 3 mg): 5.31 | Expected Percent Change from Placebo ([3]; Females, 3 mg): −44.7% | Expected Percent Reduction vs 0 mg dose ([3]; Females, 3 mg): 36.02% | Expected # of Lesions ([3]; Females, 4 mg): 4.59 | Expected Percent Change from Placebo ([3]; Females, 4 mg): −52.1% | Expected Percent Reduction vs 0 mg dose ([3]; Females, 4 mg): 44.70% | Expected # of Lesions ([3]; Females, 5 mg): 3.97 | Expected Percent Change from Placebo ([3]; Females, 5 mg): −58.5% | Expected Percent Reduction vs 0 mg dose ([3]; Females, 5 mg): 52% and 52.17% | Expected # of Lesions ([3]; Females, 6 mg): 3.45 | Expected Percent Change from Placebo ([3]; Females, 6 mg): −63.9% | Expected Percent Reduction vs 0 mg dose ([3]; Females, 6 mg): 58.43% | Expected # of Lesions ([3]; Females, 7 mg): 3.00 | Expected Percent Change from Placebo ([3]; Females, 7 mg): −68.5% | Expected Percent Reduction vs 0 mg dose ([3]; Females, 7 mg): 63.86% | Expected # of Lesions ([3]; Females, 8 mg): 2.62 | Expected Percent Change from Placebo ([3]; Females, 8 mg): −72.4% | Expected Percent Reduction vs 0 mg dose ([3]; Females, 8 mg): 68.43% | Expected # of Lesions ([3]; Females, 9 mg): 2.29 | Expected Percent Change from Placebo ([3]; Females, 9 mg): −75.8% | Expected Percent Reduction vs 0 mg dose ([3]; Females, 9 mg): 72.41% | Expected # of Lesions ([3]; Females, 10 mg): 2.01 | Expected Percent Change from Placebo ([3]; Females, 10 mg): −100.0% | Expected Percent Reduction vs 0 mg dose ([3]; Females, 10 mg): 75.78% | Expected # of Lesions ([3]; Males & Females, 1 mg): 6.79 | Expected Percent Change from Placebo ([3]; Males & Females, 1 mg): −31.4% | Expected Percent Reduction vs 0 mg dose ([3]; Males & Females, 1 mg): 17.20% | Expected # of Lesions ([3]; Males & Females, 2 mg): 5.63 | Expected Percent Change from Placebo ([3]; Males & Females, 2 mg): −43.0% | Expected Percent Reduction vs 0 mg dose ([3]; Males & Females, 2 mg): 31.34% | Expected # of Lesions ([3]; Males & Females, 3 mg): 4.67 | Expected Percent Change from Placebo ([3]; Males & Females, 3 mg): −52.6% | Expected Percent Reduction vs 0 mg dose ([3]; Males & Females, 3 mg): 43.05% | Expected # of Lesions ([3]; Males & Females, 4 mg): 3.89 | Expected Percent Change from Placebo ([3]; Males & Females, 4 mg): −60.5% | Expected Percent Reduction vs 0 mg dose ([3]; Males & Females, 4 mg): 52.56% | Expected # of Lesions ([3]; Males & Females, 5 mg): 3.24 | Expected Percent Change from Placebo ([3]; Males & Females, 5 mg): −66.9% | Expected Percent Reduction vs 0 mg dose ([3]; Males & Females, 5 mg): 60.49% | Expected # of Lesions ([3]; Males & Females, 6 mg): 2.71 | Expected Percent Change from Placebo ([3]; Males & Females, 6 mg): −72.3% | Expected Percent Reduction vs 0 mg dose ([3]; Males & Females, 6 mg): 66.95% | Expected # of Lesions ([3]; Males & Females, 7 mg): 2.27 | Expected Percent Change from Placebo ([3]; Males & Females, 7 mg): −76.6% | Expected Percent Reduction vs 0 mg dose ([3]; Males & Females, 7 mg): 72.32% | Expected # of Lesions ([3]; Males & Females, 8 mg): 1.92 | Expected Percent Change from Placebo ([3]; Males & Females, 8 mg): −80.2% | Expected Percent Reduction vs 0 mg dose ([3]; Males & Females, 8 mg): 76.59% | Expected # of Lesions ([3]; Males & Females, 9 mg): 1.62 | Expected Percent Change from Placebo ([3]; Males & Females, 9 mg): −83.2% | Expected Percent Reduction vs 0 mg dose ([3]; Males & Females, 9 mg): 80.24% | Expected # of Lesions ([3]; Males & Females, 10 mg): 1.38 | Expected Percent Change from Placebo ([3]; Males & Females, 10 mg): −100.0% | Expected Percent Reduction vs 0 mg dose ([3]; Males & Females, 10 mg): 83.17% | Expected # of Lesions ([3]; Males, 1 mg): 6.33 | Expected Percent Change from Placebo ([3]; Males, 1 mg): −42.0% | Expected Percent Reduction vs 0 mg dose ([3]; Males, 1 mg): 23.73% | Expected # of Lesions ([3]; Males, 2 mg): 4.81 | Expected Percent Change from Placebo ([3]; Males, 2 mg): −56.1% | Expected Percent Reduction vs 0 mg dose ([3]; Males, 2 mg): 42.05% | Expected # of Lesions ([3]; Males, 3 mg): 3.64 | Expected Percent Change from Placebo ([3]; Males, 3 mg): −67.1% | Expected Percent Reduction vs 0 mg dose ([3]; Males, 3 mg): 56% and 56.14% | Expected # of Lesions ([3]; Males, 4 mg): 2.73 | Expected Percent Change from Placebo ([3]; Males, 4 mg): −75.5% | Expected Percent Reduction vs 0 mg dose ([3]; Males, 4 mg): 67.11% | Expected # of Lesions ([3]; Males, 5 mg): 2.03 | Expected Percent Change from Placebo ([3]; Males, 5 mg): −82.1% | Expected Percent Reduction vs 0 mg dose ([3]; Males, 5 mg): 75.54% | Expected # of Lesions ([3]; Males, 6 mg): 1.49 | Expected Percent Change from Placebo ([3]; Males, 6 mg): −87.1% | Expected Percent Reduction vs 0 mg dose ([3]; Males, 6 mg): 82.05% | Expected # of Lesions ([3]; Males, 7 mg): 1.07 | Expected Percent Change from Placebo ([3]; Males, 7 mg): −91.0% | Expected Percent Reduction vs 0 mg dose ([3]; Males, 7 mg): 87.11% | Expected # of Lesions ([3]; Males, 8 mg): 0.74 | Expected Percent Change from Placebo ([3]; Males, 8 mg): −94.1% | Expected Percent Reduction vs 0 mg dose ([3]; Males, 8 mg): 91.08% | Expected # of Lesions ([3]; Males, 9 mg): 0.49 | Expected Percent Change from Placebo ([3]; Males, 9 mg): −96.4% | Expected Percent Reduction vs 0 mg dose ([3]; Males, 9 mg): 94.10% | Expected # of Lesions ([3]; Males, 10 mg): 0.30 | Expected Percent Change from Placebo ([3]; Males, 10 mg): −100.0% | Expected Percent Reduction vs 0 mg dose ([3]; Males, 10 mg): 96.39% | reduction in new lesions on the dose response curve in Table 8 ([3]; men, 3 mg per day): 67% | expected reduction in lesions as compared to placebo (Table 8) ([3]; men, 5 mg per day as printed): 67% | expected reduction in lesions as compared to placebo (Table 8) ([3]; women, 5 mg per day): 56% | Cortical volume rate of loss ([4]; 3 Months): −0.297 | Reduction in cortical volume loss from CHS-131, as compared to placebo ([4]; 3 Months): 42.6% | Cortical volume rate of loss ([4]; 6 Months): −0.709 | Reduction in cortical volume loss from CHS-131, as compared to placebo ([4]; 6 Months): 34.2% | Cortical volume, percent change from baseline to 6 month, Mean ([4]; n=56): −0.709% | Cortical volume, percent change from baseline to 6 month, Median ([4]; n=56): −0.832% | Cortical volume, percent change from baseline to 3 month, Mean ([4]; n=61): −0.297% | Cortical volume, percent change from baseline to 3 month, Median ([4]; n=61): −0.325% | reduction in the loss of cortical volume [5]: No reduction in the loss of cortical volume was observed | Cortical volume, percent change from baseline to 6 month, Mean ([5]; n=50): −1.350% | Cortical volume, percent change from baseline to 6 month, Median ([5]; n=50): −1.428% | Cortical volume, percent change from baseline to 3 month, Mean ([5]; n=57): −0.706% | Cortical volume, percent change from baseline to 3 month, Median ([5]; n=57): −0.746%
